Source: PubChem BioAssay AID1918953 (Molecular Pharmacology Branch, DTP, NCI, 2023)

Tested on: MDA-MB-231 complex spheroid viability
Assay: Anticancer human tumor MDA-MB-231/ATCC cell line growth inhibition;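 note: drug exposure lasted 7 days starting on day 3 of spheroid growth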
Settings: for IC50: curve of first compound; for viability, T/C: stronger effect = lower value
From the text: Multicellular complex tumor spheroid response to LSD1 Inhibitor Iadademstat in combination with a variety of drugs and investigational agents in selected tumor cell lines
The current study was undertaken to assess response to LSD1 inhibitors in combination with standard-of-care drugs and investigational agents in solid tumor complex spheroid models as well as in the K-562 leukemia. Complex spheroids include a stromal component modeled by human endothelial cells (HUVEC) and fibroblasts modeled by human mesenchymal stem cells (MSCs). The concentration ranges selected for each drug and investigational agent were based upon clinically achievable concentrations if the clinical Cmax of the agent was known.
Compounds. The drugs and investigational agents used in this study are listed on Table 1. All of the agents used, including staurosporine (NSC755774) and gemcitabine (NSC613327), were obtained from the Developmental Therapeutics Program, NCI. FDA-approved anticancer drugs are available from the NCI at http://dtp.nci.nih.gov/branches/dscb/oncology_drugset_explanation.html. Drugs and investigational agents were >95% pure by proton nuclear magnetic resonance (NMR) and liquid chromatography/mass spectrometry (LC/MS). Stock solutions were prepared at 400x in DMSO, stored at -70 degrees C, and diluted in fresh medium prior to their use. The final concentration of DMSO in cell culture wells never exceeded 0.25% (v/v). The FDA-approved anticancer drug set is available from the Developmental Therapeutics Program at https://dtp.cancer.gov/organization/dscb/obtaining/available_plates.htm. All drugs and investigational agents were tested over a range starting from a high concentration at or near the clinical Cmax and decreasing in half-log increments. If the clinical Cmax for an agent had not been determined, the highest concentration tested was 10 microM.
Cell Lines. The patient-derived cancer cell (PDC) lines: 292921-168-R-J2-PDC, K24384-001-R-PDC, and 521955-158-R2-J5-PDC pancreatic carcinomas, 556581-035-R-J1 ovarian carcinoma, 324938-238-R-J1-PDC, 855422-203-R-J1-PDC and 883617-216-R-J1-PDC urothelial bladder carcinomas, 743489-274-T-PDC renal cell carcinoma, 138582-R-J1 Merkel cell tumor, K60290-347-R-J1 and K57222-313-R-J1-PDC glioblastomas, 653999-131-R-J2-PDC, LG0703-F948-PDC, and 349418-098-R-PDC non-small cell lung carcinomas, 885512-296-R-J2-PDC, 171881-019-R-J1-PDC breast carcinomas and 186277-243-T-J2-PDC and 233499-124-R-J2-PDC colon carcinomas were obtained from the NCI Patient-Derived Models Repository (PDMR, https://pdmr.cancer.gov). The established cell lines NCI/ADR-RES (RRID:CVCL_14520 and OVCAR-5 (RRID:CVCL_1628) ovarian carcinomas, 786-O (RRID:CVCL_1051) and A498 (RRID:CVCL_A498) renal cell carcinoma, NCI-H211 (ATCC, cat. CRL-5824; RRID:CVCL_1529), NCI-H196 (ATCC, cat. CRL-5823, RRID:CVCL_1509), SW 1271 (ATCC, cat. CRL-2177, RRID:CVCL_1716) and NCI-H1876 (ATCC, cat. CRL-5902, RRID:CVCL_1503) small cell lung carcinomas, MDA-MB-231 (RRID:CVCL_0062) and MDA-MB-468 (RRID:CVCL_0419)breast carcinomas (10-12). Pooled donor human umbilical vein endothelial cells (HUVEC, Lonza, cat. CC-2519) and human mesenchymal stem cells (hMSC, Lonza, cat. PT-2501) were purchased from Lonza (Walkersville, MD).
Cell Culture. All cells were maintained in an incubator at 37 degrees C and 5% CO2 with 95% humidity. The PDC lines were cultured according to standard operating procedures established by the NCI PDMR (https://pdmr.cancer.gov). Briefly all PDCs were thawed and cultured in Matrigel-coated flasks prepared with a working solution of 1X Ham's F-12 nutrient mix, without supplementation (Invitrogen, Waltham, MA, cat. 11765054), 100 U/mL penicillin-streptomycin (Invitrogen, cat. 15140122), and 2.5% Matrigel (Corning Inc., Corning, NY, cat. 354248) for the first three passages. […]

[1] = second compound 0.1 µM, first compound 0.000949 µM
[2] = second compound 0.1 µM, first compound 0.003 µM
[3] = second compound 0.1 µM, first compound 0.00949 µM
[4] = second compound 0.1 µM, first compound 0.03 µM
[5] = second compound 0.1 µM, first compound 0.0949 µM
[6] = second compound 0.1 µM, first compound 0.3 µM
[7] = second compound 0.316 µM, first compound 0.000949 µM
[8] = second compound 0.316 µM, first compound 0.003 µM
[9] = second compound 0.316 µM, first compound 0.00949 µM
[10] = second compound 0.316 µM, first compound 0.03 µM
[11] = second compound 0.316 µM, first compound 0.0949 µM
[12] = second compound 0.316 µM, first compound 0.3 µM
[13] = second compound 1 µM, first compound 0.000949 µM
[14] = second compound 1 µM, first compound 0.003 µM
[15] = second compound 1 µM, first compound 0.00949 µM
[16] = second compound 1 µM, first compound 0.03 µM
[17] = second compound 1 µM, first compound 0.0949 µM
[18] = second compound 1 µM, first compound 0.3 µM
[19] = second compound 3.16 µM, first compound 0.000949 µM
[20] = second compound 3.16 µM, first compound 0.003 µM
[21] = second compound 3.16 µM, first compound 0.00949 µM
[22] = second compound 3.16 µM, first compound 0.03 µM
[23] = second compound 3.16 µM, first compound 0.0949 µM
[24] = second compound 3.16 µM, first compound 0.3 µM
[25] = second compound 10 µM, first compound 0.000949 µM
[26] = second compound 10 µM, first compound 0.003 µM
[27] = second compound 10 µM, first compound 0.00949 µM
[28] = second compound 10 µM, first compound 0.03 µM
[29] = second compound 10 µM, first compound 0.0949 µM
[30] = second compound 10 µM, first compound 0.3 µM

CCc1c2c(nc3ccc(O)cc13)-c1cc3c(c(=O)n1C2)COC(=O)[C@]3(O)CC + NC1CC1c1ccc(-c2cccc(O)c2)cc1
IC50 (second compound 0.1 µM): < 0.949 nM
IC50 (second compound 0.316 µM): < 0.949 nM
IC50 (second compound 1 µM): < 0.949 nM
IC50 (second compound 3.16 µM): < 0.949 nM
IC50 (second compound 10 µM): < 0.949 nM
viability, T/C [1]: 22.7%
viability, T/C [2]: 19.7%
viability, T/C [3]: 18.3%
viability, T/C [4]: 4.83%
viability, T/C [5]: 1.03%
viability, T/C [6]: 0.74%
viability, T/C [7]: 22.5%
viability, T/C [8]: 22%
viability, T/C [9]: 19.4%
viability, T/C [10]: 5.07%
viability, T/C [11]: 0.91%
viability, T/C [12]: 0.54%
viability, T/C [13]: 23.9%
viability, T/C [14]: 20.1%
viability, T/C [15]: 17.1%
viability, T/C [16]: 5.94%
viability, T/C [17]: 0.68%
viability, T/C [18]: 0.61%
viability, T/C [19]: 22.4%
viability, T/C [20]: 20.1%
viability, T/C [21]: 18.4%
viability, T/C [22]: 5.48%
viability, T/C [23]: 0.85%
viability, T/C [24]: 0.54%
viability, T/C [25]: 18.5%
viability, T/C [26]: 20.4%
viability, T/C [27]: 13.1%
viability, T/C [28]: 1.68%
viability, T/C [29]: 0.74%
viability, T/C [30]: 0.5%

Nc1ccn(C2OC(CO)C(O)C2(F)F)c(=O)n1 (stereo not given) + NC1CC1c1ccc(-c2cccc(O)c2)cc1
IC50 (second compound 0.1 µM): < 0.949 nM
IC50 (second compound 0.316 µM): < 0.949 nM
IC50 (second compound 1 µM): < 0.949 nM
IC50 (second compound 3.16 µM): < 0.949 nM
IC50 (second compound 10 µM): < 0.949 nM
viability, T/C [1]: 30.5%
viability, T/C [2]: 24.4%
viability, T/C [3]: 22.2%
viability, T/C [4]: 19.4%
viability, T/C [5]: 17.4%
viability, T/C [6]: 12%
viability, T/C [7]: 28%
viability, T/C [8]: 23.6%
viability, T/C [9]: 21.3%
viability, T/C [10]: 14.5%
viability, T/C [11]: 14.1%
viability, T/C [12]: 12.9%
viability, T/C [13]: 30.8%
viability, T/C [14]: 21.8%
viability, T/C [15]: 22.4%
viability, T/C [16]: 15.6%
viability, T/C [17]: 15.3%
viability, T/C [18]: 12.3%
viability, T/C [19]: 33.8%
viability, T/C [20]: 23.9%
viability, T/C [21]: 19.9%
viability, T/C [22]: 17.5%
viability, T/C [23]: 15.8%
viability, T/C [24]: 11.3%
viability, T/C [25]: 22.9%
viability, T/C [26]: 18.1%
viability, T/C [27]: 16%
viability, T/C [28]: 13.6%
viability, T/C [29]: 10.9%
viability, T/C [30]: 9.95%

O=C(c1cc(Cc2n[nH]c(=O)c3ccccc23)ccc1F)N1CCN(C(=O)C2CC2)CC1 + NC1CC1c1ccc(-c2cccc(O)c2)cc1
IC50 (second compound 0.1 µM): 1730 nM
IC50 (second compound 0.316 µM): 522 nM
IC50 (second compound 1 µM): 378 nM
IC50 (second compound 3.16 µM): 349 nM
IC50 (second compound 10 µM): < 31.6 nM
viability, T/C (second compound 0.1 µM, first compound 0.0316 µM): 71.6%
viability, T/C (second compound 0.1 µM, first compound 0.1 µM): 64.2%
viability, T/C (second compound 0.1 µM, first compound 0.316 µM): 67%
viability, T/C (second compound 0.1 µM, first compound 1 µM): 56.1%
viability, T/C (second compound 0.1 µM, first compound 3.16 µM): 42.7%
viability, T/C (second compound 0.1 µM, first compound 10 µM): 27.1%
viability, T/C (second compound 0.316 µM, first compound 0.0316 µM): 65.5%
viability, T/C (second compound 0.316 µM, first compound 0.1 µM): 60.6%
viability, T/C (second compound 0.316 µM, first compound 0.316 µM): 54.8%
viability, T/C (second compound 0.316 µM, first compound 1 µM): 44.5%
viability, T/C (second compound 0.316 µM, first compound 3.16 µM): 32.3%
viability, T/C (second compound 0.316 µM, first compound 10 µM): 24.8%
viability, T/C (second compound 1 µM, first compound 0.0316 µM): 59.6%
viability, T/C (second compound 1 µM, first compound 0.1 µM): 56.9%
viability, T/C (second compound 1 µM, first compound 0.316 µM): 50.7%
viability, T/C (second compound 1 µM, first compound 1 µM): 44.3%
viability, T/C (second compound 1 µM, first compound 3.16 µM): 32%
viability, T/C (second compound 1 µM, first compound 10 µM): 21.1%
viability, T/C (second compound 3.16 µM, first compound 0.0316 µM): 65.3%
viability, T/C (second compound 3.16 µM, first compound 0.1 µM): 54.1%
viability, T/C (second compound 3.16 µM, first compound 0.316 µM): 50.6%
viability, T/C (second compound 3.16 µM, first compound 1 µM): 45.1%
viability, T/C (second compound 3.16 µM, first compound 3.16 µM): 33%
viability, T/C (second compound 3.16 µM, first compound 10 µM): 22.2%
viability, T/C (second compound 10 µM, first compound 0.0316 µM): 45.4%
viability, T/C (second compound 10 µM, first compound 0.1 µM): 38.2%
viability, T/C (second compound 10 µM, first compound 0.316 µM): 36.4%
viability, T/C (second compound 10 µM, first compound 1 µM): 37.2%
viability, T/C (second compound 10 µM, first compound 3.16 µM): 23.3%
viability, T/C (second compound 10 µM, first compound 10 µM): 19.9%
